Data on 5 compounds can be found in PubChem BioAssay AID1919015 (Molecular Pharmacology Branch, DTP, NCI, 2023).

For orientation: IC50 means the concentration needed to halve the response being measured. A word on the viability, T/C: it is the ratio of treated to control.

Where “and” joins values, the source holds several entries; their conditions need not be identical. Equal entries are not always repeated. Where only a bound is given, the exact number is not on record here.

The assay deals with OVCAR-5 complex spheroids with HUVEC/MSC, viability, % test/control. Kind of assay: Anticancer human tumor OVCAR-5 cell line growth inhibition [AhR].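 On all read-outs here: spheroids exposed to compounds for 7 days.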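 On viability, T/C: 100% = DMSO vehicle control wells.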 The following applies: for viability, T/C: stronger effect = lower value. In a few lines: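 Spheroids combined tumor cells with HUVEC endothelial cells and human MSCs as stroma. AhR antagonists were paired with standard or investigational drugs, each dosed in half-log steps down from near clinical Cmax, or from 10 microM where Cmax was unknown.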

Where [1] appears, read: curve of first compound, second compound 0.1 µM.
The mark [2] stands for this setting: curve of first compound, second compound 0.316 µM.
The mark [3] stands for this setting: curve of first compound, second compound 1 µM.
The mark [4] stands for this setting: curve of first compound, second compound 3.16 µM.
Setting [5] is: curve of first compound, second compound 10 µM.
Setting [6] is: second compound 0.1 µM, first compound 0.0316 µM.
Setting [7] is: second compound 0.1 µM, first compound 0.1 µM.
Setting [8] is: second compound 0.1 µM, first compound 0.316 µM.
The mark [9] stands for this setting: second compound 0.1 µM, first compound 1 µM.
Setting [10] is: second compound 0.1 µM, first compound 3.16 µM.
[11] abbreviates: second compound 0.1 µM, first compound 10 µM.
Setting [12] is: second compound 0.316 µM, first compound 0.0316 µM.
The mark [13] stands for this setting: second compound 0.316 µM, first compound 0.1 µM.
[14] abbreviates: second compound 0.316 µM, first compound 0.316 µM.
The mark [15] stands for this setting: second compound 0.316 µM, first compound 1 µM.
[16] abbreviates: second compound 0.316 µM, first compound 3.16 µM.
Setting [17] is: second compound 0.316 µM, first compound 10 µM.
Where [18] appears, read: second compound 1 µM, first compound 0.0316 µM.
Where [19] appears, read: second compound 1 µM, first compound 0.1 µM.
The mark [20] stands for this setting: second compound 1 µM, first compound 0.316 µM.
Setting [21] is: second compound 1 µM, first compound 1 µM.
[22] abbreviates: second compound 1 µM, first compound 3.16 µM.
Setting [23] is: second compound 1 µM, first compound 10 µM.
The mark [24] stands for this setting: second compound 3.16 µM, first compound 0.0316 µM.
The mark [25] stands for this setting: second compound 3.16 µM, first compound 0.1 µM.
The mark [26] stands for this setting: second compound 3.16 µM, first compound 0.316 µM.
Where [27] appears, read: second compound 3.16 µM, first compound 1 µM.
The mark [28] stands for this setting: second compound 3.16 µM, first compound 3.16 µM.
[29] abbreviates: second compound 3.16 µM, first compound 10 µM.
The mark [30] stands for this setting: second compound 10 µM, first compound 0.0316 µM.
The mark [31] stands for this setting: second compound 10 µM, first compound 0.1 µM.
The mark [32] stands for this setting: second compound 10 µM, first compound 0.316 µM.
Where [33] appears, read: second compound 10 µM, first compound 1 µM.
[34] abbreviates: second compound 10 µM, first compound 3.16 µM.
[35] abbreviates: second compound 10 µM, first compound 10 µM.

As to `CCc1c2c(nc3ccc(O)cc13)-c1cc3c(c(=O)n1C2)COC(=O)[C@]3(O)CC` + Cc1cncc(-c2nc(NCCc3c[nH]c4ccccc34)c3ncn(C(C)C)c3n2)c1, the IC50 runs as follows: under setting [1], 0.0098 µM; under setting [2], 0.00909 µM; under setting [3], 0.00808 µM; under setting [4], 0.00377 µM; under setting [5], less than 0.000949 µM. Moreover, the viability, T/C is, setting by setting: (second compound 0.1 µM, first compound 0.000949 µM) 83.8%; (second compound 0.1 µM, first compound 0.003 µM) 59%; (second compound 0.1 µM, first compound 0.00949 µM) 46.3%; (second compound 0.1 µM, first compound 0.03 µM) 44.8%; (second compound 0.1 µM, first compound 0.0949 µM) 23.4%; (second compound 0.1 µM, first compound 0.3 µM) 9.85%. Further, the viability, T/C (second compound 0.316 µM, first compound 0.000949 µM) was 80.1%; the viability, T/C (second compound 0.316 µM, first compound 0.003 µM) was 57.1%; the viability, T/C (second compound 0.316 µM, first compound 0.00949 µM) is 47.4%; the viability, T/C (second compound 0.316 µM, first compound 0.03 µM) was 42.3%; the viability, T/C (second compound 0.316 µM, first compound 0.0949 µM) was 22.8%; the viability, T/C (second compound 0.316 µM, first compound 0.3 µM) is 9.22%. The viability, T/C (second compound 1 µM, first compound 0.000949 µM) was 73.1%; the viability, T/C (second compound 1 µM, first compound 0.003 µM) was 51.4%; the viability, T/C (second compound 1 µM, first compound 0.00949 µM) is 50.7%; the viability, T/C (second compound 1 µM, first compound 0.03 µM) is 42.3%; the viability, T/C (second compound 1 µM, first compound 0.0949 µM) is 21.5%; the viability, T/C (second compound 1 µM, first compound 0.3 µM) is 9.57%. Further, the viability, T/C by setting is: (second compound 3.16 µM, first compound 0.000949 µM) 56.8%; (second compound 3.16 µM, first compound 0.003 µM) 43.8%; (second compound 3.16 µM, first compound 0.00949 µM) 48.4%; (second compound 3.16 µM, first compound 0.03 µM) 40.2%; (second compound 3.16 µM, first compound 0.0949 µM) 21.9%; (second compound 3.16 µM, first compound 0.3 µM) 8.5%. In addition, the viability, T/C runs as follows: (second compound 10 µM, first compound 0.000949 µM) 4.99%; (second compound 10 µM, first compound 0.003 µM) 5.37%; (second compound 10 µM, first compound 0.00949 µM) 9.12%; (second compound 10 µM, first compound 0.03 µM) 7.96%; (second compound 10 µM, first compound 0.0949 µM) 4.98%; (second compound 10 µM, first compound 0.3 µM) 2.23%.

For `Nc1ccccc1NC(=O)c1ccc(CNC(=O)OCc2cccnc2)cc1` + CC(CO)NC(=O)c1cc(-c2ccc(Cl)cc2)nn(-c2cnn(C)c2)c1=O, the IC50 runs as follows: under setting [1], 0.481 µM; under setting [2], 0.514 µM; under setting [3], 0.512 µM; under setting [4], 0.444 µM; under setting [5], 0.397 µM. The viability, T/C under setting [6] is 92%; the viability, T/C under setting [7] was 80.7%; the viability, T/C under setting [8] is 59.7%; the viability, T/C under setting [9] is 32.3%; the viability, T/C under setting [10] was 19.5%; the viability, T/C under setting [11] was 7.46%. The viability, T/C reads like this: under setting [12], 95.9%; under setting [13], 86.6%; under setting [14], 63.2%; under setting [15], 31%; under setting [16], 18.3%; under setting [17], 7.56%. Further, the viability, T/C was 95.2% under setting [18]; 85.3% under setting [19]; 63.6% under setting [20]; 30.9% under setting [21]; 17.4% under setting [22]; 7.87% under setting [23]. Further, the viability, T/C was 85.9% under setting [24]; 77.8% under setting [25]; 59.7% under setting [26]; 27.9% under setting [27]; 14.6% under setting [28]; 6.5% under setting [29]. Also, the viability, T/C is 83.9% under setting [30]; 81.3% under setting [31]; 55.1% under setting [32]; 24.6% under setting [33]; 12.8% under setting [34]; 4.72% under setting [35].

In the case of `NS(=O)(=O)OCC1CC(n2ccc3c(NC4CCc5ccccc54)ncnc32)CC1O` (centres undefined), the viability, T/C (compound 0.0316 µM) was 99.8% and 98.4% and 111%; the viability, T/C (compound 0.1 µM) is 74.2% and 68.1% and 75%; the viability, T/C (compound 0.316 µM) was 41.8% and 38.4% and 42.8%; the viability, T/C (compound 1 µM) was 21.2% and 16.9% and 19.1%; the viability, T/C (compound 3.16 µM) is 14.8% and 11.5% and 13%; the viability, T/C (compound 10 µM) is 11.8% and 9.65% and 11.2%. Besides, the IC50 (curve of compound) is 0.235 µM and 0.197 µM.

Take `Nc1ccccc1NC(=O)c1ccc(CNC(=O)OCc2cccnc2)cc1`: the viability, T/C (compound 0.0316 µM) is 92.2% and 93.7% and 84.8%; the viability, T/C (compound 0.1 µM) is 90.3% and 88.7% and 81.2%; the viability, T/C (compound 0.316 µM) is 75.1% and 77.2% and 67.5%; the viability, T/C (compound 1 µM) was 53.3% and 52.3% and 33.1%; the viability, T/C (compound 3.16 µM) is 23.5% and 21.1% and 19.9%; the viability, T/C (compound 10 µM) is 9.94% and 8.4% and 7.9%. For the same compound, the IC50 (curve of compound) is 1.08 µM and 1.05 µM and 0.58 µM.

As for `O=C(c1cc(Cc2n[nH]c(=O)c3ccccc23)ccc1F)N1CCN(C(=O)C2CC2)CC1` + Cc1ccccc1N=Nc1ccc(NC(=O)c2ccnn2C)c(C)c1, the IC50 is greater than 10 µM under setting [1]; greater than 10 µM under setting [2]; greater than 10 µM under setting [3]; greater than 10 µM under setting [4]; greater than 10 µM under setting [5]. The viability, T/C under setting [6] is 103%; the viability, T/C under setting [7] was 105%; the viability, T/C under setting [8] is 102%; the viability, T/C under setting [9] was 99.8%; the viability, T/C under setting [10] was 92.5%; the viability, T/C under setting [11] was 85%. The viability, T/C was 107% under setting [12]; 109% under setting [13]; 105% under setting [14]; 104% under setting [15]; 98.3% under setting [16]; 90.6% under setting [17]. In addition, the viability, T/C is, setting by setting: under setting [18], 111%; under setting [19], 114%; under setting [20], 115%; under setting [21], 109%; under setting [22], 101%; under setting [23], 94.2%. The viability, T/C is 111% under setting [24]; 115% under setting [25]; 114% under setting [26]; 106% under setting [27]; 107% under setting [28]; 99.4% under setting [29]. For the same compound, the viability, T/C is 99.3% under setting [30]; 110% under setting [31]; 103% under setting [32]; 106% under setting [33]; 96.7% under setting [34]; 89.1% under setting [35].
